Assay results from patent US9643964B2, “3-(2-aminopyrimidin-4-yl)-5-(3-hydroxypropynyl)-1H-pyrrolo[2,3-C]pyridine derivatives as NIK inhibitors for the treatment of cancer” (Janssen Pharmaceutica NV, priority 2013, dated 2017).

Columns and labels:
JJN-3 cells = assay: Biological Assay C: antiproliferative activity on JJN-3 cells (CellTiter-Glo); format: cell-based, human; conditions: 72 hr treatment, averaged values
Procedure: (§1) Determination of Antiproliferative Activity on LP-1, L-363 and JJN-3 Cells
(§2) All compounds tested were dissolved in DMSO and further dilutions were made in culture medium. Final DMSO concentration was 0.3% (v/v) in cell proliferation assays. Viability was assessed using CellTiter-Glo cell viability assay kit (Promega). The human LP-1, L-363 and JJN-3 cells (DSMZ) were cultured in RPMI 1640 medium supplemented with 2 mM L-glutamine, and 10% fetal calf serum (PAA). Cells were routinely kept as suspension cells at 37° C. in a humidified 5% CO2 atmosphere. Cells were passaged at a seeding density of 0.2×10^6/ml twice a week. Cells were seeded in black tissue culture treated 96-well plates (Perkin Elmer). Densities used for plating ranged from 2,000 to 6,000 cells per well in a total volume of 75 μl medium. After twenty four hours, drugs and/or solvents were added (25 μl) to a final volume of 100 μl. Following 72 hr of treatment plates were removed from the incubator and allowed to equilibrate to room temperature for approx 10 min. 100 μl CellTiter-Glo reagent was added to each well that was then covered (Perkin Elmer Topseal) and shaken on plate shaker for 10 min. Luminescence was measured on a HTS Topcount (Perkin Elmer). Within an experiment, the results for each treatment were the mean of 2 replicate wells. For initial screening purposes, compounds were tested using a 9 point dilution curve (serial 1:3 dilutions). For each experiment, controls (containing no drug) and a blank incubation (containing cells read at the time of compound addition) were run in parallel. The blank value was subtracted from all control and sample values. For each sample, the mean value for cell growth (in relative light units) was expressed as a percentage of the mean value for cell growth of the control.

L-363 cells = assay: Biological Assay C: antiproliferative activity on L-363 cells (CellTiter-Glo); format: cell-based, human; conditions: 72 hr treatment, averaged values
Procedure: as §1, §2

[1] = target: Recombinant Human NF-kappaB-Inducing Kinase (NIK/MAP3K14) (Homo sapiens, UniProt Q99558); assay: Biological Assay A2: inhibition of auto-phosphorylation of recombinant human NIK/MAP3K14 (AlphaScreen); format: biochemical; conditions: auto-phosphorylation; averaged over all measurements on all batches; read-out: αscreen IC50
Recombinant Human NF-kappaB-Inducing Kinase (NIK/MAP3K14), sequence (Q99558 whole entry): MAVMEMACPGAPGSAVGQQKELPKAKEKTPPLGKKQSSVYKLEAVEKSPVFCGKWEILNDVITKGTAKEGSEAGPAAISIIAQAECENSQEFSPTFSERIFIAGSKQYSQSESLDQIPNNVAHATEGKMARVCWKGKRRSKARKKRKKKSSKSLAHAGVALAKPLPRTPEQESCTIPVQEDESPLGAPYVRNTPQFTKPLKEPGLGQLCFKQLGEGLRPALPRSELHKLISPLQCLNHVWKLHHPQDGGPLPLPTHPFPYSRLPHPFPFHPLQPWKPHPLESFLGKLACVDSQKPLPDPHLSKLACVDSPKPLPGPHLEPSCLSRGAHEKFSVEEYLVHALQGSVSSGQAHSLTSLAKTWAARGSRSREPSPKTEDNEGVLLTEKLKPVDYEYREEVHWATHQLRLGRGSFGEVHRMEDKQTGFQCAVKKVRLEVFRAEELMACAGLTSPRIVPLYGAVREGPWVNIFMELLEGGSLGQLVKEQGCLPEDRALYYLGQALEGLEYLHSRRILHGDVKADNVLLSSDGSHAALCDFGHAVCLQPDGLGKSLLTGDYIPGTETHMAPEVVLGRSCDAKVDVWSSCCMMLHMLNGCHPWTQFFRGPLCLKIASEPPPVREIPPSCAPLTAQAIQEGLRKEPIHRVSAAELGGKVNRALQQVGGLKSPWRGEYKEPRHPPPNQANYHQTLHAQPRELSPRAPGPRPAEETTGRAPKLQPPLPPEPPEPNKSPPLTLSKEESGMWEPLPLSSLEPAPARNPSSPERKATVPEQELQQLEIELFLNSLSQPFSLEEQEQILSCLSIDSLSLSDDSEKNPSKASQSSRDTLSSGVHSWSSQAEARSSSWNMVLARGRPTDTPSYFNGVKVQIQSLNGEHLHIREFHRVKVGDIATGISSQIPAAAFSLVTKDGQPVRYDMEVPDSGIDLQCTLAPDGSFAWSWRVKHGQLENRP
Procedure: Inhibition of Auto-Phosphorylation of Recombinant Human NF-kappaB-Inducing Kinase (NIK/MAP3K14) Activity (AlphaScreen®)
NIK/MAP3K14 auto-phosphorylation activity was measured using the AlphaScreen® (αscreen) format (Perkin Elmer). All compounds tested were dissolved in dimethyl sulfoxide (DMSO) and further dilutions were made in assay buffer. Final DMSO concentration was 1% (v/v) in assays. Assay buffer was 50 mM Tris pH 7.5 containing 1 mM EGTA (ethylene glycol tetraacetic acid), 1 mM DTT (dithiothreitol), 0.1 mM Na3VO4, 5 mM MgCl2, 0.01% Tween 20. Assays were carried out in 384 well Alphaplates (Perkin Elmer). Incubations consisted of compound, 25 microM Adenosine-5′-triphosphate (ATP), and 0.2 nM NIK/MAP3K14. Incubations were initiated by addition of GST-tagged NIK/MAP3K14 enzyme, carried out for 1 h at 25° C. and terminated by addition of stop buffer containing anti-phospho-IKK Ser176/180 antibody. Protein A Acceptor and Glutathione-Donor beads were added before reading using an EnVision® Multilabel Plate Reader (Perkin Elmer). Signal obtained in the wells containing blank samples was subtracted from all other wells and IC50's were determined by fitting a sigmoidal curve to % inhibition of control versus Log10 compound concentration.

LP-1 cells = assay: Biological Assay C: antiproliferative activity on LP-1 cells (CellTiter-Glo); format: cell-based, human; conditions: 72 hr treatment, averaged values
Procedure: as §1, §2

Row | SMILES | IC50 [1] | EC50 (JJN-3 cells; Homo sapiens, JJN-3, 72 h) | EC50 (L-363 cells; Homo sapiens, L-363, 72 h) | EC50 (LP-1 cells; Homo sapiens, LP-1, 72 h) | EC50 (JJN-3 cells) | EC50 (L-363 cells) | EC50 (LP-1 cells)
1 | CC(O)(C#Cc1cc2c(-c3nc(N)ncc3F)cn(C3CCN(CCF)CC3)c2cn1)C1CC1 (centres unmarked) [Compound 163] | 73 nM | 110 nM | 59 nM | 110 nM | – | – | –
2 | CCN1CCC(n2cc(-c3ccnc(N)n3)c3cc(C#CC(C)(C)O)ncc32)CC1 [Compound 79] | 47 nM | 160 nM | 61 nM | 2000 nM | – | – | –
3 | Cc1nc(C#CC(C)(O)C2CC2)cc2c(-c3nc(N)ncc3F)cn(C3COC3)c12 (centres unmarked) [Compound 133] | 50 nM | 140 nM | 66 nM | 330 nM | – | – | –
4 | CC(O)(C#Cc1cc2c(-c3ccnc(N)n3)cn(C3CCN(C4CC4)CC3)c2cn1)C1CC1 (centres unmarked) [Compound 164] | 89 nM | 390 nM | 270 nM | 680 nM | – | – | –
5 | COCCCn1cc(-c2nc(N)ncc2F)c2cc(C#CC3(O)CCCC3)ncc21 [Compound 87] | 9 nM | 530 nM | 450 nM | 1200 nM | – | – | –
6 | Nc1ncc(F)c(-c2cn(C3COC3)c3cnc(C#CC(O)(CF)C4CC4)cc23)n1 (centres unmarked) [Compound 137] | 53 nM | 550 nM | 380 nM | 1990 nM | – | – | –
7 | COCCCn1cc(-c2ccnc(N)n2)c2cc(C#CC(C)(C)O)nc(C)c21 [Compound 84] | 68 nM | 67 nM | 22 nM | 250 nM | – | – | –
8 | CN1CCC(n2cc(-c3ccnc(N)n3)c3cc(C#CC(C)(C)O)ncc32)CC1 [Compound 77] | 88 nM | 570 nM | 320 nM | 4000 nM | – | – | –
9 | CC(O)(C#Cc1cc2c(-c3nc(N)ncc3F)cn(C3CCN(CC4CC4)CC3)c2cn1)C1CC1 (centres unmarked) [Compound 165] | 46 nM | 220 nM | 200 nM | 460 nM | – | – | –
10 | COCCCn1cc(-c2nc(N)ncc2F)c2cc(C#CC3(O)CCCC3)nc(C3CC3)c21 [Compound 93] | 10 nM | 310 nM | 250 nM | 860 nM | – | – | –
11 | CN1CCN(C(=O)n2cc(-c3nc(N)ncc3F)c3cc(C#CC(C)(O)C4CC4)ncc32)CC1 (centres unmarked) [Compound 134] | 110 nM | 4100 nM | 3000 nM | 24000 nM | – | – | –
12 | COCCCn1cc(-c2nc(N)ncc2F)c2cc(C#CC(C)(O)c3cc(C)on3)ncc21 (centres unmarked) [Compound 91] | 12 nM | 1100 nM | 470 nM | 4900 nM | – | – | –
13 | CC(O)(C#Cc1cc2c(-c3nc(N)ncc3F)cn(C3CN(C4CC4)C3)c2cn1)C1CC1 (centres unmarked) [Compound 104] | 53 nM | 260 nM | 180 nM | 470 nM | – | – | –
14 | CC(O)(C#Cc1cc2c(-c3nc(N)ncc3F)cn(C3CCN(CCC(F)(F)F)CC3)c2cn1)C1CC1 (centres unmarked) [Compound 167] | 58 nM | 390 nM | 390 nM | 1000 nM | – | – | –
15 | CNc1ncc(F)c(-c2cn(CCCOC)c3cnc(C#CC4(O)CCCC4)cc23)n1 [Compound 89] | 130 nM | 3700 nM | 4200 nM | 7600 nM | – | – | –
16 | CC(C)(O)C#Cc1cc2c(-c3nc(N)ncc3C#N)cn(CC3CCOCC3)c2cn1 [Compound 75] | 35 nM | 540 nM | 670 nM | > 10000 nM | – | – | –
17 | Cc1cnc(N)nc1-c1cn(CC2CCOCC2)c2cnc(C#CC(C)(C)O)cc12 [Compound 82] | 35 nM | 1100 nM | 890 nM | 13000 nM | – | – | –
18 | COCCCn1cc(-c2nc(N)ncc2F)c2cc(C#CC(C)(C)O)nc(C)c21 [Compound 86] | 11 nM | 9.2 nM | 5.9 nM | 16 nM | – | – | –
19 | CC(O)(C#Cc1cc2c(-c3nc(N)ncc3F)cn(CCCN3CCOCC3)c2cn1)C1CC1 (centres unmarked) [Compound 105] | 190 nM | 200 nM | 140 nM | 530 nM | – | – | –
20 | COCCn1cc(-c2ccnc(N)n2)c2cc(C#CC(C)(O)C3CCNCC3)ncc21 (centres unmarked) [Compound 115] | 4900 nM | > 10000 nM | > 10000 nM | > 10000 nM | – | – | –
21 | CC(C)N1CC(n2cc(-c3ccnc(N)n3)c3cc(C#CC(C)(C)O)ncc32)C1 [Compound 80] | 76 nM | 310 nM | 160 nM | 2500 nM | – | – | –
22 | [2H]C([2H])([2H])C(O)(C#Cc1cc2c(-c3nc(N)ncc3F)cn(C3COC3)c2cn1)C1([2H])C([2H])([2H])C1([2H])[2H] (centres unmarked) [Compound 110] | 17 nM | 170 nM | 140 nM | 580 nM | – | – | –
23 | CCN1CCC(n2cc(-c3nc(N)ncc3F)c3cc(C#CC(C)(C)O)ncc32)CC1 [Compound 85] | 33 nM | 44 nM | 15 nM | 190 nM | – | – | –
24 | COCCCn1cc(-c2nc(N)ncc2C)c2cc(C#CC(C)(C)O)ncc21 [Compound 83] | 86 nM | 670 nM | 550 nM | 4700 nM | – | – | –
25 | CC(O)(C#Cc1cc2c(-c3nc(N)ncc3F)cn(C3CN(CC4CC4)C3)c2cn1)C1CC1 (centres unmarked) [Compound 140] | 100 nM | 170 nM | 140 nM | 320 nM | – | – | –

Further lines, with some results ahead:

Row | IC50 [1] | SMILES | EC50 (JJN-3 cells; Homo sapiens, JJN-3, 72 h) | EC50 (L-363 cells; Homo sapiens, L-363, 72 h) | EC50 (LP-1 cells; Homo sapiens, LP-1, 72 h) | EC50 (JJN-3 cells) | EC50 (L-363 cells) | EC50 (LP-1 cells)
26 | 140 nM | COCCN1CCC(n2cc(-c3nc(N)ncc3F)c3cc(C#CC(C)(O)C4CC4)ncc32)CC1 (centres unmarked) [Compound 126] | – | – | – | 270 nM | 280 nM | 640 nM
27 | 230 nM | COCCCn1cc(-c2nc(N)ncc2F)c2cc(C#CC(C)(O)C3CC3)ncc21 (single isomer, unassigned) [Compound 119] | – | – | – | 700 nM | 900 nM | 2100 nM
28 | 76 nM | COCC(C)n1cc(-c2nc(N)ncc2F)c2cc(C#CC(C)(O)C3CC3)ncc21 (centres unmarked) [Compound 128] | 130 nM | 120 nM | 310 nM | – | – | –
29 | 680 nM | CC(O)(C#Cc1cc2c(-c3nc(N)ncc3F)cn(C3COC3)c2cn1)C1CC1 (single isomer, unassigned) [Compound 121] | – | – | – | 1400 nM | 1300 nM | 3400 nM
30 | 340 nM | COCC(C)N1CC(n2cc(-c3nc(N)ncc3F)c3cc(C#CC(C)(O)C4CC4)ncc32)C1 (centres unmarked) [Compound 162] | 370 nM | 350 nM | 790 nM | – | – | –
31 | 28 nM | CC(O)(C#Cc1cc2c(-c3nc(N)ncc3F)cn(CC3CCCO3)c2cn1)C1CC1 (centres unmarked) [Compound 130] | 300 nM | 190 nM | 640 nM | – | – | –
32 | 68 nM | CN1CC(n2cc(-c3nc(N)ncc3F)c3cc(C#CC(C)(O)C4CC4)ncc32)C1 (centres unmarked) [Compound 135] | 180 nM | 64 nM | 410 nM | – | – | –
33 | 21 nM | CC(O)(C#Cc1cc2c(-c3nc(N)ncc3F)cn(C3CCOC3)c2cn1)C1CC1 (centres unmarked) [Compound 131] | 150 nM | 89 nM | 440 nM | – | – | –
34 | 15 nM | COCCCn1cc(-c2nc(N)ncc2F)c2cc(C#CC(C)(O)C3CC3)ncc21 (centres unmarked) [Compound 88] | 130 nM | 110 nM | 220 nM | – | – | –
35 | 270 nM | CC(C)N1CC(n2cc(-c3nc(N)ncc3F)c3cc(C#CC(C)(O)C4CC4)ncc32)C1 (centres unmarked) [Compound 159] | 230 nM | 180 nM | 320 nM | – | – | –
36 | 180 nM | CCOCCN1CC(n2cc(-c3nc(N)ncc3F)c3cc(C#CC(C)(O)C4CC4)ncc32)C1 (centres unmarked) [Compound 158] | 440 nM | 390 nM | 740 nM | – | – | –
37 | 36 nM | COCCOc1cnc(N)nc1-c1cn(C(C)C)c2cnc(C#CC(C)(O)C3CC3)cc12 (centres unmarked) [Compound 168] | 27 nM | 23 nM | 93 nM | – | – | –
38 | 180 nM | CCN1CCOC(Cn2cc(-c3nc(N)ncc3F)c3cc(C#CC(C)(O)C4CC4)ncc32)C1 (centres unmarked) [Compound 127] | 240 nM | 190 nM | 420 nM | – | – | –
